# Entries after “also recorded” stand apart in the source; their conditions may differ.
# Columns and labels:
# EAE mice = assay: EAE clinical disease score; format: in vivo, mouse; parameters: key to Disability: Disease score: ‘+’ indicate marker was significantly (p ≤ 0.05) increased in treatment group relative to vehicle; ‘−’ indicates marker was significantly (p ≤ 0.05) decreased in treatment group relative to vehicle; ○: ‘o’ indicate marker did not change relative to vehicle; conditions: for Disability: Disease score / EAE clinical scores / disease progression: vs vehicle; for EAE clinical symptoms during peak disease: therapeutic 5 mg/kg/d from day 8 (postEAE); for EAE clinical scores / disease progression: therapeutic s.c. from day 8 (postEAE)
# [1] = tested on: primary oligodendrocyte and oligodendrocyte precursor cells (OL/OPCs); assay: Primary OPC culture differentiation (MBP immunostaining, DAPI); format: cell-based, mouse; conditions: for number of MBP+ OLs (differentiated OLs) / branched OLs / complex branching cells: 10 nM, vs vehicle-treated cells; for number of MBP+ OLs (differentiated OLs): 3 days in differentiating media
# Protocol: Primary OPC Cultures: Primary OPCs, isolated from postnatal day P1 C57BL/6 male and female mouse cortices as described previously, were treated with 10 nM ligands in differentiating medium for 3 days (Tiwari-Woodruff et al., 2001; Tiwari-Woodruff et al., 2006). Primary OPC were cultured into 8-well chamber slides (three wells per condition, 2.5×10^5 cells/well) for three days to attach and […] in differentiating media (consisting of DMEM-F12 with triiodothyronine- and thyroxine-containing Sato as well as penicillin, streptomycin, insulin, N-acetyl-L-cysteine, forskolin, ciliary neurotrophic factor, neurotrophin-3, and platelet-derived growth factor receptor α (Tiwari-Woodruff et al., 2001)). A positive control (IndCl), a negative control (Vehicle consisting of the media+EtOH mixture used to dissolve IndCl), and a normal control (differentiating media alone) were used for comparison. At the end of the treatment period, cells were fixed, stained by immunocytochemistry (primary antibody polyclonal chicken myelin basic protein (MBP, Millipore AB9348), shown in green and co-stained with nuclear stain—DAPI shown in blue), and imaged with an Olympus BX61 confocal microscope (Olympus America Inc., Center Valley, Pa.) at 10× magnification (3 images per well). Cells were counted using the ImageJ multipoint tool, and counts were then divided by the image area (mm^2). Average cell density for each condition was then divided by the normal condition cell density. Analysis of OL differentiation consisted of counting the number of MBP+ cells and process extensions that were longer than the respective cell-body diameter and tracking the number of highly branched MBP+ cells (with three or more processes) (Monnerie et al., 2017). Statistics were performed using GraphPad Prism 6 Software (La Jolla, Calif.). One-way ANOVA with Tukey's posthoc test for multiple comparisons was used to generate p-values, and data are presented as mean SEM (with α≤0.05).
# Primary OPC cultures were used as a convenient cell-based assay to characterize the proliferation and/or differentiation effects of the new IndCl analogues and to select those most suitable for more extensive studies to be done in comparison with the parental ligand, IndCl. 48 hours after plating OPCs, one of seven IndCl analogues (FIG. 1A) was added to differentiating media at a concentration of 10 nM (De Angelis et al., 2005; Saijo et al., 2011). OPCs were allowed to differentiate for 3 days in the presence of IndCl or analogues, at which point they were fixed, immunostained for OPC/OL markers, and quantified. […] The total number of cells in culture was not altered by any treatment (FIGS. 1B and 1D).
# [2] = tested on: myelin basic protein (MBP) in thoracic spinal cord ventral column; assay: MBP immunoreactivity in thoracic ventral column white matter of EAE mice; format: in vivo, mouse; conditions: therapeutic treatment (postEAE), vs vehicle
# Protocol: Histological Preparation of Tissues: Mice were deeply anesthetized by isoflurane (Piramal Healthcare) inhalation and perfused transcardially with phosphate buffered saline (PBS), followed by 10% formalin (Thermo Fisher Scientific) to fix tissues. Brains and spinal cords were dissected and post-fixed in 10% formalin (Thermo Fisher Scientific) for 24 hours, then cryoprotected in 30% sucrose (EMD Millipore, Darmstadt, Germany) for 48 hours and embedded in gelatin for sectioning. Embedded brains and spinal cords were then cut into 40-μm coronal sections using an HM525 NX cryostat (Thermo Fisher Scientific). Sections were collected serially and stored in PBS with 1% sodium azide at 4° C. until staining by immunohistochemistry, following a previously described protocol (Crawford et al., 2010; Moore et al., 2014).
# Immunohistochemistry: Before histological staining, 40-μm free floating sections were thoroughly washed with PBS to remove residual sodium azide (Crawford et al., 2010). Sections were permeabilized with 0.3% Triton X-100 in ix PBS and 15% normal goat serum (NGS). […]
# Confocal Microscopy: Thoracic spinal cord dorsal and ventral column sections, as well as CC were imaged using an Olympus BX61 confocal microscope (Olympus America Inc., Center Valley, Pa.) using a 10× and 40× objective. […] Immunostaining was quantified using unbiased stereology (Crawford et al., 2010). […] MBP^+, GFAP^+, CD45^+, Iba1^+, CC1^+, and CXCL1^+, staining intensity was measured as percent area of positive immunoreactivity within the region of interest and intensity of signal determined by ImageJ.
# Treatment with IndCl or other ERβ ligands improves myelination within CNS white tracts of mice with EAE (Khalaj et al., 2013; Kumar et al., 2013; Moore et al., 2014). To establish the pro-myelinating effects of the IndCl analogues tested, thoracic ventral column white matter was assessed for myelin basic protein (MBP) immunoreactivity.
# [3] = Post (therapeutic, postEAE) treatment of EAE mice
SMILES,Disability: Disease score (EAE mice; [3]),"Disability: Disease score (EAE mice; Pre (prophylactic, preEAE) E2 treatment of EAE mice)",number of MBP+ OLs (differentiated OLs) [1],EAE clinical symptoms during peak disease (EAE mice),EAE clinical scores / disease progression (EAE mice),"MBP staining intensity, thoracic spinal cord ventral column [2]",branched OLs / complex branching cells [1],MBP+/DAPI ratio (OPC differentiation) ([1]; FIG. 10B)
"C[C@]12CC[C@@H]3c4ccc(O)cc4CC[C@H]3[C@@H]1CC[C@@H]2O [E2, 170 estradiol]",○,−,,,,,,
"Oc1ccc(-n2nc3ccc(O)cc3c2Cl)cc1 [IndCl, chloroindazole]",○,,significantly increased,did not significantly affect EAE clinical symptoms,reversed disease progression over time,maintained at near normal levels; also recorded: increased,,
"Oc1ccc(-n2nc3ccc(O)cc3c2Cl)c(Cl)c1 [IndCl-o-Cl, 3-chloro-2-(2-chloro-4-hydroxyphenyl)-2H-indazol-5-ol]",−,,significant increase; also recorded: significantly increased,did not significantly affect EAE clinical symptoms,reversed disease progression over time; also recorded: significantly reduced,maintained at near normal levels; also recorded: increased,increase in the percentage of branched OLs,
"Cc1cc(O)ccc1-n1nc2ccc(O)cc2c1Cl [IndCl-o-Me, 3-chloro-2-(4-hydroxy-2-methylphenyl)-2H-indazol-5-ol]",−,,significant increase; also recorded: significantly increased,did not significantly affect EAE clinical symptoms,reversed disease progression over time; also recorded: significantly reduced,maintained at near normal levels; also recorded: increased,increase in the percentage of branched OLs,greatest increase

# — patent US11673866B2, “Estrogen receptor beta ligands for the prevention and treatment of multiple sclerosis (MS) and other demyelinating, inflammatory and neurodegenerative diseases” (The Board of Trustees of the University of Illinois, priority 2018, dated 2023)
